Reference: paper PMC12133982, “Predominant T-cell epitopes of SARS-CoV-2 restricted by multiple prevalent HLA-B and HLA-C allotypes in Northeast Asia” (Frontiers in Immunology, 2025)
Peptide text beside a SMILES is read from it.

Tests used:
[1] = biological target: HLA-C0102 (Homo sapiens, UniProt P10321, A176E/A330V/A35S/A97T/C350S/D114A/D33F/L171W/L180R/L218V/M285V/M309V/M331V/P208H/Q277E/Q291P/R121W/R243W/R30K/S123C/S140Y/S297R/T329A/T363A/V272M/V319A); assay: Competitive peptide binding assay, CIR-C0102; details: for IC50: HMy2.CIR-C0102 cells, reference Cy5-[…], class from inhibition at 5 and 15 μM, flow cytometry MFI, read-out: Binding affinity with HLA-C0102; for inhibition at 15 µM / inhibition at 5 µM: read-out: Inhibition % of Cy5-reference peptide binding
Experimental: (§1) Then, competitive peptide binding assays were performed.

[2] = biological target: HLA-C0401 (Homo sapiens, UniProt P10321, A176E/A330V/A35S/A73E/C25G/C350S/D138N/D33S/E299K/L171W/L180R/L218V/M285V/M309V/M331V/N104K/P208H/Q277E/Q291P/R243W/R38W/S101N/S123F/S140F/S297R/S48A/T329A/T363A/V319A/V327M); assay: Competitive peptide binding assay, CIR-C0401; details: HMy2.CIR-C0401 cells, reference Cy5-[…], class from inhibition at 5 and 15 μM, flow cytometry MFI; read-out: Binding affinity with HLA-C0401
Experimental: as §1

[3] = biological target: HLA-C0702 (Homo sapiens, UniProt P10321); assay: Competitive peptide binding assay, CIR-C0702
[4] = biological target: HLA-C0602 (Homo sapiens, UniProt P10321, A176E/A330V/C350S/L171W/L180W/L218V/M285V/M309V/M331V/N104K/P208H/Q277E/Q291P/R121W/S101N/S123Y/S297R/T329A/T363A/V319A/V328M); assay: Competitive peptide binding assay, CIR-C0602
[5] = biological target: HLA-C1402 (Homo sapiens, UniProt P10321, A176E/A330V/A35S/A97T/C350S/D114A/D33S/L171W/L180R/L218V/M285V/M309V/M331V/P208H/Q277E/Q291P/R121W/R243W/S123F/S297R/S48A/T329A/T363A/V319A); assay: Competitive peptide binding assay, CIR-C1402; details: HMy2.CIR-C1402 cells, reference Cy5-[…], class from inhibition at 5 and 15 μM, flow cytometry MFI; read-out: Binding affinity with HLA-C1402
Experimental: as §1

[6] = biological target: HLA-C0304 (Homo sapiens, UniProt P10321, A176E/A330V/A97T/C25G/C350S/D114A/D33Y/E197K/L119I/L127V/L171W/L218V/M285V/M309V/M331V/P208H/Q277E/Q291P/R243W/R45H/S123Y/S140Y/S297R/S48A/T118I/T187L/T329A/T363A/V319A); assay: Competitive peptide binding assay, CIR-C0304; details: HMy2.CIR-C0304 cells, reference Cy5-[…], class from inhibition at 5 and 15 μM, flow cytometry MFI; read-out: Binding affinity with HLA-C0304
Experimental: as §1

[7] = biological target: HLA-C0302 (Homo sapiens, UniProt P10321, A176E/A330V/A97T/C25G/C350S/D114A/D33Y/E197K/L127V/L171W/L218V/M285V/M309V/M331V/P208H/Q277E/Q291P/R243W/R45H/S123Y/S297R/S48A/T118I/T187L/T329A/T363A/V319A); assay: Competitive peptide binding assay, CIR-C0302; details: HMy2.CIR-C0302 cells, reference Cy5-[…], class from inhibition at 5 and 15 μM, flow cytometry MFI; read-out: Binding affinity with HLA-C0302
Experimental: as §1

[8] = biological target: HLA-C0801 (Homo sapiens, UniProt P10321, A176T/A330V/A97T/C350S/D114A/D138N/D33Y/E201K/E299G/L171W/L218V/M285V/M309V/M331V/P208H/Q277E/Q291P/R59Q/S123Y/S140F/S297R/S48A/T329A/T363A/V319A/V328M); assay: Competitive peptide binding assay, CIR-C0801; details: HMy2.CIR-C0801 cells, reference Cy5-[…], class from inhibition at 5 and 15 μM, flow cytometry MFI; read-out: Binding affinity with HLA-C0801
Experimental: as §1

[9] = biological target: HLA-C0303 (Homo sapiens, UniProt P10321, A176E/A330V/A97T/C25G/C350S/D114A/D33Y/E197K/G115R/L119I/L127V/L171W/L218V/M285V/M309V/M331V/P208H/Q277E/Q291P/R243W/R45H/S123Y/S140Y/S297R/S48A/T118I/T187L/T329A/T363A/V319A); assay: Competitive peptide binding assay, CIR-C0303; details: HMy2.CIR-C0303 cells, reference Cy5-[…], class from inhibition at 5 and 15 μM, flow cytometry MFI; read-out: Binding affinity with HLA-C0303
Experimental: as §1

Row | Structure (SMILES) | IC50 [1] [µM] | IC50 [2] [µM] | IC50 [3] [µM] | IC50 [4] [µM] | IC50 [5] [µM] | IC50 [6] [µM] | IC50 [7] [µM] | inhibition at 15 µM [1] [%] | IC50 [8] [µM] | IC50 [9] [µM] | inhibition at 5 µM [1] [%]
1 | CC[C@H](C)[C@H](N)C(=O)N[C@H](C(=O)N[C@@H](CC(N)=O)C(=O)N[C@@H](CO)C(=O)N[C@H](C(=O)N[C@@H](CC(C)C)C(=O)N[C@@H](CC(C)C)C(=O)N[C@@H](Cc1ccccc1)C(=O)N[C@@H](CC(C)C)C(=O)O)C(C)C)C(C)C [Epitope M7] (H-IVNSVLLFL-OH; N-terminus and C-terminus assumed) | < 5 | 5 to 15 | > 15 | 5 to 15 | > 15 | > 15 | > 15 | – | – | – | –
2 | CC(C)C[C@H](NC(=O)[C@@H](NC(=O)[C@@H](NC(=O)CNC(=O)[C@H](CCC(N)=O)NC(=O)[C@@H]1CCCN1C(=O)[C@H](CC(C)C)NC(=O)[C@H](CCC(N)=O)NC(=O)[C@@H](N)CC(C)C)[C@@H](C)O)[C@@H](C)O)C(=O)O [Epitope M13] (H-LQLPQGTTL-OH; N-terminus and C-terminus assumed) | – | 5 to 15 | 5 to 15 | – | > 15 | < 5 | – | – | – | – | –
3 | CC[C@H](C)[C@H](NC(=O)[C@@H](NC(=O)[C@H](CC(N)=O)NC(=O)[C@H](CCCNC(=N)N)NC(=O)[C@H](CCCCN)NC(=O)[C@@H](NC(=O)[C@H](Cc1ccc(O)cc1)NC(=O)[C@H](C)NC(=O)[C@@H](N)Cc1ccccc1)[C@@H](C)O)C(C)C)C(=O)O [Epitope M23] (H-FAYTKRNVI-OH; N-terminus and C-terminus assumed) | 5 to 15 | > 15 | – | – | – | – | – | 78.9 | > 15 | < 5 | –
4 | CC(C)C[C@H](NC(=O)[C@H](CC(C)C)NC(=O)[C@H](Cc1ccccc1)NC(=O)[C@@H](NC(=O)[C@H](CCCNC(=N)N)NC(=O)[C@@H]1CCCN1C(=O)[C@H](CCC(N)=O)NC(=O)[C@H](CC(C)C)NC(=O)[C@@H](N)Cc1ccc(O)cc1)[C@@H](C)O)C(=O)O [Epitope M35] (H-YLQPRTFLL-OH; N-terminus and C-terminus assumed) | > 15 | – | < 5 | – | 5 to 15 | > 15 | > 15 | – | – | – | –
5 | CC[C@H](C)[C@H](N)C(=O)N[C@@H](C)C(=O)N[C@@H](CC(N)=O)C(=O)N[C@@H](CCC(N)=O)C(=O)N[C@@H](Cc1ccccc1)C(=O)N[C@@H](CC(N)=O)C(=O)N[C@@H](CO)C(=O)N[C@@H](C)C(=O)N[C@H](C(=O)O)[C@@H](C)CC [Epitope M37] (H-IANQFNSAI-OH; N-terminus and C-terminus assumed) | < 5 | > 15 | – | > 15 | – | – | – | 86.1 | > 15 | < 5 | 68.9
6 | CSCC[C@H](NC(=O)[C@H](C)NC(=O)[C@@H]1CCCN1C(=O)[C@H](CC(=O)O)NC(=O)[C@H](C)NC(=O)[C@H](C)NC(=O)[C@H](Cc1ccc(O)cc1)NC(=O)[C@@H](NC(=O)[C@@H](N)CC(C)C)C(C)C)C(=O)O [Epitope M58] (H-LVYAADPAM-OH; N-terminus and C-terminus assumed) | > 15 | > 15 | > 15 | – | – | – | < 5 | – | > 15 | 5 to 15 | –
7 | CSCC[C@H](NC(=O)[C@H](C)NC(=O)[C@@H](N)Cc1ccccc1)C(=O)N[C@@H](CCC(N)=O)C(=O)N[C@@H](CCSC)C(=O)N[C@@H](C)C(=O)N[C@@H](Cc1ccc(O)cc1)C(=O)N[C@@H](CCCNC(=N)N)C(=O)N[C@@H](Cc1ccccc1)C(=O)O [Epitope M63] | > 15 | > 15 | > 15 | > 15 | – | – | < 5 | – | > 15 | 5 to 15 | –
8 | CC(C)[C@H](NC(=O)CNC(=O)[C@H](Cc1c[nH]cn1)NC(=O)[C@@H]1CCCN1C(=O)[C@H](C)NC(=O)[C@H](CO)NC(=O)[C@@H](N)CCC(N)=O)C(=O)N[C@H](C(=O)N[C@@H](Cc1ccccc1)C(=O)O)C(C)C [Epitope M69] (H-QSAPHGVVF-OH; N-terminus and C-terminus assumed) | > 15 | > 15 | – | > 15 | > 15 | – | – | – | > 15 | – | –
9 | CC(C)C[C@H](NC(=O)[C@H](CC(C)C)NC(=O)[C@H](Cc1ccccc1)NC(=O)[C@@H](NC(=O)[C@@H](NC(=O)[C@H](Cc1ccccc1)NC(=O)[C@H](C)NC(=O)[C@H](CC(C)C)NC(=O)[C@@H](N)Cc1ccccc1)C(C)C)C(C)C)C(=O)O [Epitope M76] (H-FLAFVVFLL-OH; N-terminus and C-terminus assumed) | – | – | 5 to 15 | – | > 15 | < 5 | 5 to 15 | – | – | – | –
10 | CC[C@H](C)[C@H](NC(=O)[C@@H](NC(=O)[C@@H](N)CO)[C@@H](C)CC)C(=O)N[C@@H](C)C(=O)N[C@@H](Cc1ccc(O)cc1)C(=O)N[C@H](C(=O)N[C@@H](CCSC)C(=O)N[C@@H](CO)C(=O)N[C@@H](CC(C)C)C(=O)O)[C@@H](C)O [Epitope M86] (H-SIIAYTMSL-OH; N-terminus and C-terminus assumed) | 5 to 15 | 5 to 15 | – | – | > 15 | – | > 15 | – | – | – | –
11 | CC[C@H](C)[C@H](NC(=O)[C@@H]1CCCN1C(=O)[C@H](CCSC)NC(=O)[C@H](CC(C)C)NC(=O)[C@H](CC(C)C)NC(=O)[C@H](CO)NC(=O)[C@H](Cc1ccc(O)cc1)NC(=O)[C@@H](N)Cc1ccc(O)cc1)C(=O)N[C@@H](CC(C)C)C(=O)O [Epitope M95] | 5 to 15 | – | > 15 | > 15 | 5 to 15 | – | – | – | – | – | –
12 | CC[C@H](C)[C@H](NC(=O)[C@H](CC(N)=O)NC(=O)[C@H](CC(=O)O)NC(=O)[C@H](CO)NC(=O)[C@H](CO)NC(=O)[C@@H](N)CO)C(=O)N[C@@H](C)C(=O)N[C@@H](CC(C)C)C(=O)N[C@@H](CC(C)C)C(=O)O [Epitope M111] (H-SSSDNIALL-OH; N-terminus and C-terminus assumed) | > 15 | < 5 | > 15 | 5 to 15 | > 15 | – | – | 47.1 | – | – | 30.9
13 | CC[C@H](C)[C@H](NC(=O)[C@H](C)NC(=O)[C@H](C)NC(=O)[C@H](CC(N)=O)NC(=O)[C@H](CC(N)=O)NC(=O)[C@H](C)NC(=O)[C@@H]1CCCN1C(=O)[C@H](CC(N)=O)NC(=O)[C@H](CCCNC(=N)N)NC(=O)[C@@H](N)[C@@H](C)O)C(=O)O [Epitope M117] (H-TRNPANNAAI-OH; N-terminus and C-terminus assumed) | > 15 | – | < 5 | < 5 | > 15 | – | – | – | – | – | 21
